From US11578074B2, “Nitrogenous heterocyclic compound, preparation method, intermediate, composition, and application” (SHANGHAI PHARMACEUTICALS HOLDING CO., LTD., priority 2017, dated 2023) come the findings set out here.

The target of one series is T1, CYP2D6 (Homo sapiens, UniProt P10635).
T1 construct: A system of 100 μL human liver microsomes; from tissue; host or cells: human liver microsomes
Kind of series: Direct inhibition (DI) of CYP2D6 in human liver microsomes. The format is in vitro ADME. Conditions: probe Dextromethorphan, human liver microsomes 0.2 mg/mL, 10 μM compound, read-out: Direct inhibition (DI) 2D6 (Dextromethorphan). Here is the method: (§1) Study on Direct Inhibition (DI) of CYP3A4, CYP2D6, CYP2C9, CYP2C19, CYP1A2
(§2) A system of 100 μL human liver microsomes (final concentration: 0.2 mg/mL) was used for direct inhibition under warm incubation. The system contained NADPH (final concentration: 1 mM), 10 μM compound, a positive inhibitor cocktail (Ketoconazole 10 μM, Quinidine: 10 μM, Sulfaphenazole: 100 μM, Naphthoflavone: 10 μM, Tranylcypromene 1000 μM), a negative control 10 μM DMSO and mixed probe substrates (Midazolam 10 μM, Testosterone 100 μM, Dextromethophan 10 μM, Diclofenac 20 μM, Phenetin 100 μM, Mephenytoin 100 μM). The reaction was terminated after incubation for 20 minutes. The relative activity of the enzymes was calculated by measuring the relative production of metabolites.
Background: Microsomes from liver hold many membrane-bound enzymes, among them those of drug oxidation.

In the next series the target is T2, ErbB2 kinase (Homo sapiens, UniProt P04626).
T2 construct: The final concentration of ErbB2 kinase was 0.06 ng/μL
Kind of series: EGFR/ErbB2 enzymatic experiment (HTRF kinEASE-TK), ErbB2. The format is biochemical. Conditions: ErbB2 kinase 0.06 ng/μL, ATP 4 μM; read-out: Kinase IC50 (nM) in vitro ErbB2. Background: TR-FRET usually uses a lanthanide donor and a delayed reading to cut background.

The target in a further series is EGFR kinase (Homo sapiens, UniProt P00533). The experiment in a line: EGFR/ErbB2 enzymatic experiment (HTRF kinEASE-TK), EGFR. The format is biochemical. To be noted: EGFR kinase 0.06 units/μL, ATP 1.65 μM; read-out: Kinase IC50 (nM) in vitro EGFR.
For a further series, the target named is T3, CYP1A2 (Homo sapiens, UniProt P05177).
T3 construct: A system of 100 μL human liver microsomes; from tissue; host or cells: human liver microsomes
T3 sequence (P05177 1-516): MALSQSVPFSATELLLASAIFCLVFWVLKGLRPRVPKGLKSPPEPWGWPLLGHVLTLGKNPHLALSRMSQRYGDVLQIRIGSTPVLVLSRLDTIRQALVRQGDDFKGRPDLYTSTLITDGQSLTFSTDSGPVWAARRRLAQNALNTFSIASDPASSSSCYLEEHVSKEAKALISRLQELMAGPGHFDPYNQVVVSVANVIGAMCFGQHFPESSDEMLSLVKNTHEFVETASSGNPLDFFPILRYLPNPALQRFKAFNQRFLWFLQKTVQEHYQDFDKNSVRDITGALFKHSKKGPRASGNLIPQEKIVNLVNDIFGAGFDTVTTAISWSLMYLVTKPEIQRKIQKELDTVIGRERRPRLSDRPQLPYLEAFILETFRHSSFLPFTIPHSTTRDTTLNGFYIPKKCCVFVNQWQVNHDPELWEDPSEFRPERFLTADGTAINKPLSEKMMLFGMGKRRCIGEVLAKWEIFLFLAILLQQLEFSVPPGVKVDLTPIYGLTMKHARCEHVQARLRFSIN
Kind of series: Direct inhibition (DI) of CYP1A2 in human liver microsomes. The format is in vitro ADME. Conditions: probe Phenacetin, human liver microsomes 0.2 mg/mL, 10 μM compound, read-out: Direct inhibition (DI) 1A2 (Phenacetin). The method, then:
as §1, §2

The test system of series [1] is N87 (human gastric cancer cell NCI-N87). The experiment in a line: In vitro proliferation inhibition assay of cell lines (CellTiter-Glo), N87. The format is cell-based. To be noted: N87 cells, 72 hours. The procedure, abridged: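 Cells seeded overnight (BT-474 8.8×10^4 cells/mL, N87 6.6×10^4 cells/mL), then exposed to 9 compound concentrations in duplicate for 72 hours at 37° C, 5% CO2. Viability read by CellTiter-Glo luminescence.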
Background: ATP-based viability assays read luminescence as a measure of living cells.

A further series deals with T4, CYP2C19 (Homo sapiens, UniProt P33261).
T4 construct: A system of 100 μL human liver microsomes; from tissue; host or cells: human liver microsomes
The experiment in a line: Direct inhibition (DI) of CYP2C19 in human liver microsomes. The format is in vitro ADME. Conditions: probe Mephenytoin, human liver microsomes 0.2 mg/mL, 10 μM compound, read-out: Direct inhibition (DI) 2C19 (Mephenytoin). Here is the method:
as §1, §2

The target in a further series is T5, CYP2C9 (Homo sapiens, UniProt P11712).
T5 construct: A system of 100 μL human liver microsomes; from tissue; host or cells: human liver microsomes
The experiment in a line: Direct inhibition (DI) of CYP2C9 in human liver microsomes. The format is in vitro ADME. Conditions: probe Diclofenac, human liver microsomes 0.2 mg/mL, 10 μM compound, read-out: Direct inhibition (DI) 2C9 (Diclofenac). Here is the method: as §1, §2

Series [2] has as its system BT-474 (human breast cancer cell). Kind of series: In vitro proliferation inhibition assay of cell lines (CellTiter-Glo), BT-474. The format is cell-based. To be noted: BT-474 cells, 72 hours. The procedure, abridged: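 Cells were exposed to nine compound concentrations in duplicate for 72 h at 37 °C and 5% CO2. Viability was read with CellTiter-Glo reagent after equilibration at room temperature.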

The next series has as its target T6, CYP3A4 (Homo sapiens, UniProt P08684).
T6 construct: A system of 100 μL human liver microsomes; from tissue; host or cells: human liver microsomes
Kind of series: Direct inhibition (DI) of CYP3A4 in human liver microsomes. To be noted: human liver microsomes 0.2 mg/mL, 10 μM compound. The format is in vitro ADME. Here is the method:
as §1, §2

Where [3] appears, read: probe Midazolam, read-out: Direct inhibition (DI) 3A4 (Midazolam).
Where [4] appears, read: probe Testosterone, read-out: Direct inhibition (DI) 3A4 (testosterone).

The term inhibition denotes the percentage by which the read-out fell short of the control. Broadly, the IC50 is the concentration at which inhibition is half-maximal.

Read-outs that look alike come from different tables or passages of the source.

T5 sequence (P11712 whole entry): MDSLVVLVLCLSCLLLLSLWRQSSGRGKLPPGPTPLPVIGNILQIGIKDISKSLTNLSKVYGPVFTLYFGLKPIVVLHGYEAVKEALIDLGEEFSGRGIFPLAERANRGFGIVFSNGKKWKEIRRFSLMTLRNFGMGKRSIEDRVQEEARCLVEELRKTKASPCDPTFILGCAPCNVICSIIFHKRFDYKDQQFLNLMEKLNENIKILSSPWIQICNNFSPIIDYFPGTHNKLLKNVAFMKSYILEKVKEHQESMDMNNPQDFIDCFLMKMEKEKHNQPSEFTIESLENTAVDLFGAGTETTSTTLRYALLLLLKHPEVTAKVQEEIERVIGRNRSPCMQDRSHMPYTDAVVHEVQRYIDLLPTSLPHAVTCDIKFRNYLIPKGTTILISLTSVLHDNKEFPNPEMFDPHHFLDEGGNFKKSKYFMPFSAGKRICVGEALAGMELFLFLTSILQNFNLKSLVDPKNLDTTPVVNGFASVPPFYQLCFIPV
T6 sequence (P08684 whole entry): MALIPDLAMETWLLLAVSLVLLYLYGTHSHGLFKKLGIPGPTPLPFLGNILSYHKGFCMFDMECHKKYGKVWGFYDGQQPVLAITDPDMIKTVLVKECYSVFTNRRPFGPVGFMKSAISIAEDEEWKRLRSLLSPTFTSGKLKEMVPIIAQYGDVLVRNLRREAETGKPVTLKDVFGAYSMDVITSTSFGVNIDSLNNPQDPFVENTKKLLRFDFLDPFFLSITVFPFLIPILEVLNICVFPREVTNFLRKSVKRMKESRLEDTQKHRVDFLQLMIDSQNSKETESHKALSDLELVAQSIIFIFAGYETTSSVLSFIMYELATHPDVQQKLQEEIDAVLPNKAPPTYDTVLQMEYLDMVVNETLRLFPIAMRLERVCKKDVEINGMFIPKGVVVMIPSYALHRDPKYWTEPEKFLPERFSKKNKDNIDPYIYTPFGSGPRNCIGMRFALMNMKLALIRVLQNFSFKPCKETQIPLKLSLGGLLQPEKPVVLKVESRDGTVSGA
T4 sequence (P33261 whole entry): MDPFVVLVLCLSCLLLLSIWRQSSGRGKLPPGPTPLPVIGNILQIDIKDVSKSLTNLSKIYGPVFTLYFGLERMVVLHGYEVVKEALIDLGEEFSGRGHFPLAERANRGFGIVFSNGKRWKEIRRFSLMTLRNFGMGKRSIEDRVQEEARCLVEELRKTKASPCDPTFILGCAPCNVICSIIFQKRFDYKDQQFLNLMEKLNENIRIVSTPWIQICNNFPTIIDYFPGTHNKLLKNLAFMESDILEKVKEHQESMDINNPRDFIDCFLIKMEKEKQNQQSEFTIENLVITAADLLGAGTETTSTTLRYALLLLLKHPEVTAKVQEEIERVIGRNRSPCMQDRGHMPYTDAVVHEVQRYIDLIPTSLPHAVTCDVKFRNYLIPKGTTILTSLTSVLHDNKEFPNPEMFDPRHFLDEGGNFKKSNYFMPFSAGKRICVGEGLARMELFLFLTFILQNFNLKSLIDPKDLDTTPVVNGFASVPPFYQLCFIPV
Chain of EGFR kinase (P00533 25-1210): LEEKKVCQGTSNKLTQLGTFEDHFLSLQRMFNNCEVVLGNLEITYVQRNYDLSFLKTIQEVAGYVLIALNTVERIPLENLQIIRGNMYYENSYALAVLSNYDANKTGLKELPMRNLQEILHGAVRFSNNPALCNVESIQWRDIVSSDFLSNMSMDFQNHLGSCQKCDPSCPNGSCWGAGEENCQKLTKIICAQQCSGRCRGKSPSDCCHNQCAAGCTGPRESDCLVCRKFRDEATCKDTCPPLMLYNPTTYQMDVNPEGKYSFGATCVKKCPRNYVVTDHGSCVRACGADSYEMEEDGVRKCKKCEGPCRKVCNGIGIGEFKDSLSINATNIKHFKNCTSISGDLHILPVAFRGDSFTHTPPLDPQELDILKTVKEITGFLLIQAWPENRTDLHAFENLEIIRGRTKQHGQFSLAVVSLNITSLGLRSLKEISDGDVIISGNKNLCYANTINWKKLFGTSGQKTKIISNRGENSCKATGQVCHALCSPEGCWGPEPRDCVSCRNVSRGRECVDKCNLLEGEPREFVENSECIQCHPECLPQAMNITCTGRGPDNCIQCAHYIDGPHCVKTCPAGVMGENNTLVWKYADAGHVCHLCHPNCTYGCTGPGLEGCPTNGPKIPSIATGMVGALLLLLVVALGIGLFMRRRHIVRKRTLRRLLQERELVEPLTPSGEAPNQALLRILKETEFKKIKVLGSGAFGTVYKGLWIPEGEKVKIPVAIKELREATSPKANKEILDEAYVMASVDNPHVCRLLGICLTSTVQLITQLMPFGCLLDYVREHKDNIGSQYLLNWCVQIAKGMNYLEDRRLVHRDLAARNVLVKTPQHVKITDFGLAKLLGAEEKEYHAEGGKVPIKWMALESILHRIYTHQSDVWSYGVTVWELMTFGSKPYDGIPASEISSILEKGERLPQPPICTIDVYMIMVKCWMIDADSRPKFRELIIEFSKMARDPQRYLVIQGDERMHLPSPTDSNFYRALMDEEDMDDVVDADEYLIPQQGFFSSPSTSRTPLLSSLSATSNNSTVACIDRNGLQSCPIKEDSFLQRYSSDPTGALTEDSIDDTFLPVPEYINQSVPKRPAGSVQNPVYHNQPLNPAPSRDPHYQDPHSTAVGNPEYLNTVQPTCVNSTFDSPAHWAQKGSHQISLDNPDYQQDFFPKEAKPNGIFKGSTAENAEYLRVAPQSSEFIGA
T1 sequence (P10635 whole entry): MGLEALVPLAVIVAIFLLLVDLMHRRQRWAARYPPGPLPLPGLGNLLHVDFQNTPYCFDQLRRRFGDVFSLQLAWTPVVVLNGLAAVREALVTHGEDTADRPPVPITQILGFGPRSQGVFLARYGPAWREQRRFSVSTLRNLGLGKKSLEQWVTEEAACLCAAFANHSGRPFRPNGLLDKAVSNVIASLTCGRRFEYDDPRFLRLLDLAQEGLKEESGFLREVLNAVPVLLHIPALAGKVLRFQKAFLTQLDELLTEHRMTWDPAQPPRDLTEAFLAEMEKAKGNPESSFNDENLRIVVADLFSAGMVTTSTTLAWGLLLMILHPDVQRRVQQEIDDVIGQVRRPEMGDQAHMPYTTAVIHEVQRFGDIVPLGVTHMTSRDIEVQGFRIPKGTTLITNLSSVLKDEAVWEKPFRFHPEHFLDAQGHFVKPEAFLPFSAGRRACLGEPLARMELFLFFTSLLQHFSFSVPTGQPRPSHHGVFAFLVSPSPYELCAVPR
T2 sequence (P04626 23-1255): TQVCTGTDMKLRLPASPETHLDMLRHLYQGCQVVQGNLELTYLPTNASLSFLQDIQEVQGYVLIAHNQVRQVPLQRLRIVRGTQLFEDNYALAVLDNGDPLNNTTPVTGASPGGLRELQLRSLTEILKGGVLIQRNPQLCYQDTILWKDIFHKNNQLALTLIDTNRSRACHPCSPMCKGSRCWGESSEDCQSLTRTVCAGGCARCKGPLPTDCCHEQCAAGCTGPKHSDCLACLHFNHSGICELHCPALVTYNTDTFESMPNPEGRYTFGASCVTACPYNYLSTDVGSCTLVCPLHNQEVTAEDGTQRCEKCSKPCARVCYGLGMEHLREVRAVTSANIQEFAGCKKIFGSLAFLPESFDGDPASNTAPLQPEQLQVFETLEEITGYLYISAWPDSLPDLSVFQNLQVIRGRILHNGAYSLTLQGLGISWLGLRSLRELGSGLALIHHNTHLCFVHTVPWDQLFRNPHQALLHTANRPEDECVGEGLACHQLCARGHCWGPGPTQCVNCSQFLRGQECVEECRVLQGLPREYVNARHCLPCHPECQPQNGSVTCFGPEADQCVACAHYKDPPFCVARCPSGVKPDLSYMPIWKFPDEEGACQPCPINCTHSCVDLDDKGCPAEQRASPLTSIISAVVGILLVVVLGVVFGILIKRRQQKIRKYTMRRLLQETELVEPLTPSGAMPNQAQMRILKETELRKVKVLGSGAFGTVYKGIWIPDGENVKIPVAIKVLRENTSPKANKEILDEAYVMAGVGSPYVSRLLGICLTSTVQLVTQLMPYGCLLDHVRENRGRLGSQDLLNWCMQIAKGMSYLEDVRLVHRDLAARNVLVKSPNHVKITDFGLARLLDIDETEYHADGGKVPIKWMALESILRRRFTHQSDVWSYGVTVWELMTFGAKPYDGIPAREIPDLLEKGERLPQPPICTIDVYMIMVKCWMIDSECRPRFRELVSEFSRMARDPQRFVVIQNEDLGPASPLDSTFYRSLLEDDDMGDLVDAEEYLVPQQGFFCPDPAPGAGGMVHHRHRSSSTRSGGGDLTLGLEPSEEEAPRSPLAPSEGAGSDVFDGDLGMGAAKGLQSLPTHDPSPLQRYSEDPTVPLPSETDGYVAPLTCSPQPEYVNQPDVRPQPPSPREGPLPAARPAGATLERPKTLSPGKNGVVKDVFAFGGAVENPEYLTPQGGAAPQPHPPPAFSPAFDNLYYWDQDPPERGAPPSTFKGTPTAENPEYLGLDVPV

Take `C=C(F)C(=O)N1CC=C(c2ccc3ncnc(Nc4ccc(Oc5cc6nncn6cn5)c(C)c4)c3c2)CC1` [Final product of Embodiment 6, 1-(4-(4-((4-([1,2,4]triazolo[4,3-c]pyrimidin-7-yloxy)-3-methylphenyl)amino)quinazolin-6-yl)-5,6-dihydropyridin-1(2H)-yl)-2-fluoropropyl-2-en-1-one]: the inhibition at 20 min, 10 µM at CYP2D6 was determined as 30%; at CYP1A2, 13%; at CYP2C19, 41%; at CYP2C9, 55%; at CYP3A4 (setting [3]) it was 72%; on CYP3A4 (setting [4]), 80%. Also, the IC50 on ErbB2 kinase amounted to 2.92 nM; at EGFR kinase it was 233 nM; in series [1] it was 24 nM; in [2] it was 16.1 nM.
For `C=CC(=O)N[C@@H]1CCCN(c2ccc3ncnc(Nc4ccc(Oc5cc6nncn6cn5)c(C)c4)c3c2)C1` [Final product of Embodiment 3, (R)—N-(1-(4-((4-([1,2,4]triazolo[4,3-c]pyrimidin-7-yloxy)-3-methylphenyl)amino)quinazolin-6-yl)piperidin-3-yl) acrylamide], the inhibition at 20 min, 10 µM was 4% on CYP2D6; 14% on CYP1A2; 9% at CYP2C19; 26% on CYP2C9; 54% at CYP3A4 (setting [3]); 61% on CYP3A4 (setting [4]). In addition, the IC50 at ErbB2 kinase is 3.83 nM; at EGFR kinase it was 24.3 nM; in series [1] it was 15.6 nM; in series [2], 15.3 nM.
Turning to `Cc1cc(Nc2ncnc3ccc(NC(=O)/C=C/[C@H]4CCCN4C)cc23)ccc1Oc1cc2nccn2cn1` [Final product of Embodiment 41], the inhibition at 20 min, 10 µM at CYP2D6 was 71%; at CYP1A2, less than 0%; at CYP2C19, 1%; at CYP2C9, less than 0%; on CYP3A4 (setting [3]) it was less than 0%; on CYP3A4 (setting [4]), 6%. Moreover, the IC50 at ErbB2 kinase is 0.6 nM; at EGFR kinase it was 0.6 nM; in series [1] it was 8.5 nM; in [2], 3.9 nM.
On to `C=CC(=O)N1CCC(c2ccc3ncnc(Nc4ccc(Oc5cc6nncn6cn5)c(C)c4)c3c2)CC1` [Final product of Embodiment 4, 1-(4-(4-((4-([1,2,4]triazolo[4,3-c]pyrimidin-7-yloxy)-3-methylphenyl)amino)quinazolin-6-yl)piperidin-1-yl)propan-2-en-1-one], for which the inhibition at 20 min, 10 µM on CYP2D6 is 7%; on CYP1A2 it was less than 0%; at CYP2C19, 23%; at CYP2C9, 48%; on CYP3A4 (setting [3]), 49%; at CYP3A4 (setting [4]), 56%. The IC50 at ErbB2 kinase is 6.09 nM; on EGFR kinase, 168 nM; in [1], 5.75 nM; in series [2], 4.79 nM.
Consider `C=CC(=O)NC1CCC=C(c2ccc3ncnc(Nc4ccc(Oc5cc6nncn6cn5)c(C)c4)c3c2)C1` (stereo not drawn) [Final product of Embodiment 1, N-(3-(4-((4-([1,2,4]triazolo[4,3-c]pyrimidin-7-yloxy)-3-methylphenyl)amino)quinazolin-6-yl)cyclohex-3-en-1-yl)acrylamide], for which the inhibition at 20 min, 10 µM on CYP2D6 turned out to be 25%; on CYP1A2 it was 47%; on CYP2C19, 37%; on CYP2C9, 74%; at CYP3A4 (setting [3]) it was 91%; at CYP3A4 (setting [4]) it was 94%. Further, the IC50 worked out at 0.947 nM on ErbB2 kinase, 14.4 nM at EGFR kinase, 4.45 nM in [1] and 5.07 nM in [2].
On to `CCOc1cc2ncnc(Nc3ccc(Oc4ccn5ncnc5c4)c(C)c3)c2cc1NC(=O)/C(F)=C\[C@@H]1CCCN1C`, for which the inhibition at 20 min, 10 µM amounted to 38% on CYP2D6; 23% at CYP1A2; 43% on CYP2C19; 21% at CYP2C9; 14% on CYP3A4 (setting [3]); 32% at CYP3A4 (setting [4]). Besides, the IC50 came to 4.6 nM at ErbB2 kinase, 50.9 nM on EGFR kinase, 3.1 nM in series [1] and 5.9 nM in series [2].
On to `CCOc1cc2ncnc(Nc3ccc(Oc4ccn5ncnc5c4)c(C)c3)c2cc1NC(=O)/C(F)=C\[C@H]1CCCN1C` [Final product of Embodiment 44], for which the inhibition at 20 min, 10 µM at CYP2D6 is 36%; on CYP1A2 it was 12%; on CYP2C19 it was 27%; at CYP2C9, 11%; at CYP3A4 (setting [3]), less than 0%; at CYP3A4 (setting [4]), 13%. Besides, the IC50 worked out at 2.4 nM at ErbB2 kinase, 32.6 nM at EGFR kinase, 1.2 nM in [1] and 2 nM in [2].
`Cc1cc(Nc2ncnc3ccc(NC(=O)/C=C/[C@H]4CCCN4C)cc23)ccc1Oc1ccn2ccnc2c1` [Final product of Embodiment 11, (R,E)-N-(4-((4-(imidazo[1,2-a]pyridin-7-yloxy)-3-methylphenyl)amino)quinazolin-6-yl)-3-(1-methylpyrrolidin-2-yl)acrylamide]: the inhibition at 20 min, 10 µM on CYP2D6 worked out at 87%; on CYP1A2 it was 9%; on CYP2C19 it was 26%; on CYP2C9, 9%; on CYP3A4 (setting [3]) it was 5%; on CYP3A4 (setting [4]) it was 16%. Also, the IC50 amounted to 0.73 nM on ErbB2 kinase, 1.02 nM on EGFR kinase, 3.18 nM in [1] and 3.27 nM in series [2].
As for `C=CC(=O)N1CCCC(Nc2ccc3ncnc(Nc4ccc(Oc5cc6nncn6cn5)c(C)c4)c3c2)C1` (stereo in doubt) [Final product of Embodiment 8, (R)-1-(3-((4-((4-([1,2,4]triazolo[4,3-c]pyrimidin-7-yloxy)-3-methylphenyl)amino)quinazolin-6-yl)amino)piperidin-1-yl)propan-2-en-1-one], the inhibition at 20 min, 10 µM was 11% at CYP2D6; 11% at CYP1A2; 28% at CYP2C19; 17% at CYP2C9; 61% on CYP3A4 (setting [3]); 72% on CYP3A4 (setting [4]). Further, the IC50 on ErbB2 kinase was 17.5 nM; at EGFR kinase it was 136 nM; in series [1] it was 19.4 nM; in series [2], 10.3 nM.
